How the values were obtained:
[1] = biological target: T1, human aldosterone synthase (CYP11B2) (Homo sapiens, UniProt P19099); test: Test for CYP11B2 inhibitors in V79 MZh11B2 cells (test system B); format: cell-based; details: for IC50: Table 1, V79 MZh11B2 cells, read-out: IC50 V79 11B2 hCYP11B2; for inhibition at 0.5 µM: V79MZh11B2, Table 2, percentage inhibition, inhibitor concentration 0.5 μM, read-out: % (0.5 μM) hCYP11B2
T1 construct: expressed in transfected cells; host or cells: V79 MZh11B2 (V79 Chinese hamster cells)
T1 sequence (P19099 25-503): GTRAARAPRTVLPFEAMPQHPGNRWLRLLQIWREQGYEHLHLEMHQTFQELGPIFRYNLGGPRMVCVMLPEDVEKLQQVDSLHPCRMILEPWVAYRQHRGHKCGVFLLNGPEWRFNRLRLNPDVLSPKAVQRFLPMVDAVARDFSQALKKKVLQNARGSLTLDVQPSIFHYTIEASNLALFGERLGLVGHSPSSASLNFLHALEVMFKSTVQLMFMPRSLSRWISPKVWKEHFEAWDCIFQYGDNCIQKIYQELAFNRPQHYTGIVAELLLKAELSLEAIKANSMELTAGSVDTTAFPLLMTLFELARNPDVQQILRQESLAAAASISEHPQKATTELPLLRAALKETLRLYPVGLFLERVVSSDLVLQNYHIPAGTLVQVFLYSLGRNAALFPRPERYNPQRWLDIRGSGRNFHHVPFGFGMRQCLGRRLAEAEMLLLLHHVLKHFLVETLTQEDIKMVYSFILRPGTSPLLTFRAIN
Method: B) Test for CYP11B2 Inhibitors (V79 MZh Cells):
(§1) Maintenance of the cells: V79 MZh11B2 and V79 MZh11B1, which recombinantly express human aldosterone synthase (CYP11B2) or steroid 11-β-hydroxylase CYP11B1) and were prepared according to Denner et al. (Denner, K. et al., Pharmacogenetics 5:89-96 (1995)), were cultured in cell culture dishes of 60 or 90 mm diameter in a CO2 incubator at 37° C. and in a water-saturated atmosphere containing 5% of CO2. Both cell lines were cultured in DMEM^+, which contained 10% of FCS and the antibiotics penicillin and streptomycin (1%) for protection from bacterial contamination. The cells were passaged every 2 to 3 days following treatment with trypsin/EDTA, since the doubling […], according to cell count, was 1 to 2 days. The cells were passaged up to 12 to 15 times in order to exclude possible cell changes. If needed, freshly thawed cells were employed.
(§2) Inhibition test: V79 MZh11B2- and V79 MZh11B1 cells (8·10^5 cells per well) were grown to confluence in 24-well cell culture plates with a 1.9 cm^2 culture area per hole (Nunc, Roskilde, Denmark). Before the test, the DMEM culture medium present was removed, and 450 μl of fresh DMEM with inhibitor were added to each hole in at least three different concentrations in order to determine the IC50 value. After preincubation (60 min, 37° C.), the reaction was started by the addition of 50 μl of DMEM containing 2.5 μl of a solution of the substrate 11-deoxycorticosterone (20 μM, containing 1.25 nCi of [4-^14C]11-deoxycorticosterone, in ethanol). The plate was then kept in the CO2 incubator at 37° C. and under 5% CO2. The V79 MZh11B1 cells were incubated for 120 min, the V79 MZh11B2 cells for 40 min. Controls not containing inhibitor were treated in the same manner. The enzyme reactions were stopped by extraction of the supernatant with 500 μl of EtOAc. The samples were centrifuged (10000×g, 2 min), and the solution was removed and evaporated. The residue was taken up in 10 μl of chloroform and analyzed by HPTLC (see below).
For V79 MZh11B2, the conversion followed according to equation 3: […]
(§3) The percentage inhibition which was caused by an inhibitor in the concentration employed in each case was calculated according to equation 2.
(§4) It was calculated by determining the percentage inhibition at least 3 different inhibitor concentrations, which must all lie in the linear range of the sigmoidal IC50 curve (log C/% inhibition). The calculation was carried out by linear regression. The values determined were only used if they formed a straight line at a probability r of >0.95.
(§5) The resuspended residue from example A) or B)—containing the radiolabeled steroids—was applied to an HPTLC plate (20×10 cm, silica gel 60F254) with a concentration zone (Merck, Darmstadt, Germany). The plate was developed twice using the mobile phase chloroform/methanol/water (300:20:1). Unlabeled […] and corticosterone were applied as a reference for the CYP11B1 reaction. For the CYP11B2 reaction, 11-deoxycorticosterone, corticosterone, 18-hydroxycorticosterone and aldosterone were used as a reference. The unlabeled references were detected at 260 nm. Subsequently, imaging plates (BAS MS2340, for ^14C samples, Raytest, Straubenhardt, Germany) were exposed for 48 h with the HPTLC plates. The imaging plates were scanned using the Phosphoimager system Fuji FLA 3000 (Raytest, Straubenhardt, Germany) and the steroids were quantified.

[2] = biological target: T2, steroid 11-β-hydroxylase CYP11B1 (hCYP11B1) (Homo sapiens, UniProt P15538); test: Inhibition test in V79 MZh11B1 cells (test system B); format: cell-based; details: for IC50: Table 1, V79 MZh11B1 cells, read-out: IC50 V79 11B1 hCYP11B1; for % (0.5 μM) hCYP11B1: Table 2, percentage inhibition, inhibitor concentration 0.5 μM
T2 construct: expressed in transfected cells; host or cells: V79 MZh11B1 (V79 Chinese hamster cells)
T2 sequence (P15538 25-503): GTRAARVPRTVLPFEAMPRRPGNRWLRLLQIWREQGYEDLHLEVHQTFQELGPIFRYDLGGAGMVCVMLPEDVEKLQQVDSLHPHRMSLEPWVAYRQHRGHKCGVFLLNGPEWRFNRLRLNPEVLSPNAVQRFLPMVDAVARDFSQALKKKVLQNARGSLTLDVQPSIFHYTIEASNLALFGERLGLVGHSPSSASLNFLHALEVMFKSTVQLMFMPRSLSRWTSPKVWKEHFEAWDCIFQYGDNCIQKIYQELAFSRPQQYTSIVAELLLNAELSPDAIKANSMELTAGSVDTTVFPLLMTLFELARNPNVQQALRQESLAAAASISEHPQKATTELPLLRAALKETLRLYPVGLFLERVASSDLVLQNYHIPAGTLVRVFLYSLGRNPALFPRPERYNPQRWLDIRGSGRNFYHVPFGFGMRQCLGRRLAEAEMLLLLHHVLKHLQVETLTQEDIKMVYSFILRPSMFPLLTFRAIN
Method: as §1, §2
In the case of V79 MZh11B1, conversion was calculated analogously to equation 1, wherein: […]
as §3, §4, §5

| SMILES | IC50 [1] | IC50 [2] | melting point | % (0.5 μM) hCYP11B1 [2] | inhibition at 0.5 µM [1] |
| --- | --- | --- | --- | --- | --- |
| O=C1CCc2cc(-c3cccnc3)ccc2N1 [Example 1, 6-Pyridin-3-yl-3,4-dihydro-1H-quinolin-2-one] | 28 nM | 6750 nM | 189 °C |  |  |
| S=C1CCc2cc(-c3cccnc3)ccc2N1 [Example 8, 6-Pyridin-3-yl-3,4-dihydro-1H-quinoline-2-thione] |  |  | 267 °C | 49% |  |
| O=C1CCc2cc(-c3cccnc3)cc(Cl)c2N1 [Example 12, 8-Chloro-6-pyridin-3-yl-3,4-dihydro-1H-quinolin-2-one] | 3.8 nM | 1670 nM | 178 °C |  |  |
| O=C1CSc2cc(-c3cccnc3)ccc2N1 [Example 14, 7-Pyridin-3-yl-4H-benzo[1,4]thiazin-3-one] |  |  | 240 °C | 49% |  |
| O=C1CCc2cc(-n3ccnc3)cc3c2N1CC3 [Example 28, 8-Imidazol-1-yl-1,2,5,6-tetrahydro-pyrrolo[3,2,1-ij]quinolin-4-one] |  |  | 124 °C | 24% | 87% |

Next, values leading:

| IC50 [1] | IC50 [2] | melting point | % (0.5 μM) hCYP11B1 [2] | inhibition at 0.5 µM [1] | SMILES |
| --- | --- | --- | --- | --- | --- |
| 0.2 nM | 87 nM | 159 °C |  |  | COc1cncc(-c2ccc3c(c2)CCC(=O)N3C)c1 [Example 6, 6-(5-Methoxypyridin-3-yl)-1-methyl-3,4-dihydro-1H-quinolin-2-one] |
|  |  | 176 °C | 97% |  | CN1C(=O)CCc2cc(-c3cncc4ccccc34)ccc21 [Example 7, 6-Isoquinolin-4-yl-1-methyl-3,4-dihydro-1H-quinolin-2-one] |
| 21 nM | 5970 nM | 91 °C |  |  | CCN1C(=O)CCc2cc(-c3cccnc3)ccc21 [Example 9, 1-Ethyl-6-pyridin-3-yl-3,4-dihydro-1H-quinolin-2-one] |
|  |  | 150 °C | 51% | 95% | COc1cncc(-c2cc3c4c(c2)CCC(=O)N4CCC3)c1 [Example 19, 9-(5-Methoxypyridin-3-yl)-1,2,6,7-tetrahydro-5H-pyrido[3,2,1-ij]quinolin-3-one] |
